From patent US20060084648A1, “Ethynyl derivatives as factor xa inhibitors” (Merck Patent GmbH, priority 2003, published 2006)
Values belong to the molecule of their own block, whether it stands above or below them.

How the values were obtained:
TF/FVIIa = target: T1, TF/FVIIa (Homo sapiens, UniProt P08709); experiment: TF/factor VIIa inhibition (TF/FVIIa-IC50, pharmacological data); format: biochemical
T1 construct: Coagulation factor VIIa initiates the extrinsic part of the coagulation cascade
Description: The inhibition of factor VIIa by the compounds according to the invention and the measurement of the anticoagulant and antithrombotic activity can be determined by conventional in-vitro or in-vivo methods. A conventional method for the measurement of the inhibition of factor VIIa is described, for example, by H. F. Ronning et al. in Thrombosis Research 1996, 84, 73-81.

FXa = FXa (Homo sapiens, UniProt P00742); experiment: Factor Xa inhibition (FXa-IC50, pharmacological data); format: biochemical
Description: The inhibition of factor Xa by the compounds according to the invention and the measurement of the anticoagulant and antithrombotic activity can be determined by conventional in-vitro or in-vivo methods. A suitable method is described, for example, by J. Hauptmann et al. in Thrombosis and Haemostasis 1990, 63, 220-223.
The inhibition of factor Xa can be measured, for example by the method of T. Hara et al. in Thromb. Haemostas. 1994, 71, 314-319.

T1 sequence (P08709 213-466 limits assumed): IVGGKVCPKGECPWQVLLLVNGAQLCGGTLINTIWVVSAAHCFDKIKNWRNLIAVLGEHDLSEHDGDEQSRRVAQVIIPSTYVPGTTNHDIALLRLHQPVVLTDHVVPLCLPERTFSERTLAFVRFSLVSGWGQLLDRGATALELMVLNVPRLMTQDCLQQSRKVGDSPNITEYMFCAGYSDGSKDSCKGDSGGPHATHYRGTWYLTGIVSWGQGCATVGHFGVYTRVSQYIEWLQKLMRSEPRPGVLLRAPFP
T1 sequence (P08709 61-212 limits assumed): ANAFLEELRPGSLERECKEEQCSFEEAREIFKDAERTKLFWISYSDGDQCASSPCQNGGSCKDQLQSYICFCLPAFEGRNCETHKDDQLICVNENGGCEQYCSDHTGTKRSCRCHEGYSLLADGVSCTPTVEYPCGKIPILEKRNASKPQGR
T1 sequence (P13726 33-295 partner): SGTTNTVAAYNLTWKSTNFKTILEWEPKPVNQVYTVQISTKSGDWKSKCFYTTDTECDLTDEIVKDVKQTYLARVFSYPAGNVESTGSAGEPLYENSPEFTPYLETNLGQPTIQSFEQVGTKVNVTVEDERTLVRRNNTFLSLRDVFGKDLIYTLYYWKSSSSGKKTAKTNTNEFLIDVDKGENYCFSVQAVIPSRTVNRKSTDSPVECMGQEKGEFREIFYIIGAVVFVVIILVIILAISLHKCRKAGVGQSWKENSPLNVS
Sequence of FXa (P00742 235-488 limits assumed): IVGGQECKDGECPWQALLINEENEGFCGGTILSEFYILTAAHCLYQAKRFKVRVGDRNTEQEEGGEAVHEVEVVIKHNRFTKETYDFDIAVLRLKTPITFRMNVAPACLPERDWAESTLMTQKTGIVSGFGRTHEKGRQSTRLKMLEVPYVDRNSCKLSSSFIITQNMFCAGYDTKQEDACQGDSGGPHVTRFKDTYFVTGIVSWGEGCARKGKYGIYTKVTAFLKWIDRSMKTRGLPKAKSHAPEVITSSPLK
Sequence of FXa (P00742 41-179 limits assumed): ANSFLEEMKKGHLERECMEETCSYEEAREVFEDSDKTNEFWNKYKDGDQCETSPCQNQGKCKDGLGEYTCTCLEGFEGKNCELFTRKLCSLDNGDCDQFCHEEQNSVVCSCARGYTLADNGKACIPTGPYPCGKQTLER

SMILES: C#Cc1ccc(NC(=O)N[C@H](CCC)C(=O)Nc2ccc(N3CCOCC3=O)cc2)cc1 [AA, (R)-2-[3-(4-ethynylphenyl)ureido]-N-[4-(3-oxomorpholin-4-yl)-phenyl]valeramide]
IC50 (TF/FVIIa): 88 nM | IC50 (FXa): 25 nM | melting point: 182 °C

SMILES: C#Cc1ccc(NC(=O)N[C@H](CC(C)C)C(=O)Nc2ccc(N3CCOCC3=O)cc2)cc1 [AB, (R)-2-[3-(4-ethynylphenyl)ureido]-N-[4-(3-oxomorpholin-4-yl)phenyl]4-methylvaleramide]
IC50 (TF/FVIIa): 41 nM | IC50 (FXa): 36 nM

SMILES: C#Cc1ccc(NC(=O)N[C@H](CC(C)C)C(=O)Nc2ccc(N3CCNC3=N)cc2)cc1 [AC, (R)-2-[3-(4-ethynylphenyl)ureido]-N-[4-(2-iminoimidazolidin-1-yl)phenyl]4-methylvaleramide]
IC50 (TF/FVIIa): 240 nM | IC50 (FXa): 46 nM

Next, values leading:

IC50 (TF/FVIIa): 33 nM | IC50 (FXa): 42 nM
SMILES: C#Cc1ccc(NC(=O)N[C@H](CO)C(=O)Nc2ccc(N3CCOCC3=O)cc2)cc1 [Compound 5]

IC50 (TF/FVIIa): 37 nM | IC50 (FXa): 22 nM
SMILES: C#Cc1ccc(NC(=O)N[C@H](COC)C(=O)Nc2ccc(N3CCOCC3=O)cc2)cc1 [Compound 6]
